Source: ChEMBL document CHEMBL1129699, “Synthesis of furo[2,3-c]pyran--D-thymidine” (Bioorg Med Chem Lett, 1996)

Assays:
CEM-SS [1] = test: Compound was tested in vitro for its cytotoxicity in CEM-SS cells; type: functional; details: Homo sapiens
CEM-SS [2] = test: Compound was tested in vitro for its anti-HIV activity in CEM-SS cells; type: functional, cell-based; details: Homo sapiens

IC50 (CEM-SS [2]) | Compound | CC50 (CEM-SS [1])
> 100 µM | Cc1cn(C2CC3CC(CI)OCC3(CO)O2)c(=O)[nH]c1=O (centres undefined) | > 100 µM
> 100 µM | Cc1cn(C2CC3CC(C)OCC3(CO)O2)c(=O)[nH]c1=O (centres undefined) | > 100 µM
